Source: patent US20110212968A1, “PHENETHYLAMIDE DERIVATIVES AND THEIR HETEROCYCLIC ANALOGUES” (priority 2008, published 2011)

How the values were obtained:
[1] = target: T1, human orexin-1 receptor (Homo sapiens, UniProt O43613); assay: Intracellular calcium measurement (FLIPR Tetra), orexin receptor antagonistic activity, OX1; type: cell-based; conditions: CHO cells expressing human orexin-1 receptor, 3 nM orexin-A
T1 construct: expressed in transfected cells; host or cells: CHO (Chinese hamster ovary) cells, kept under G418 selection
T1 sequence (O43613 1-425): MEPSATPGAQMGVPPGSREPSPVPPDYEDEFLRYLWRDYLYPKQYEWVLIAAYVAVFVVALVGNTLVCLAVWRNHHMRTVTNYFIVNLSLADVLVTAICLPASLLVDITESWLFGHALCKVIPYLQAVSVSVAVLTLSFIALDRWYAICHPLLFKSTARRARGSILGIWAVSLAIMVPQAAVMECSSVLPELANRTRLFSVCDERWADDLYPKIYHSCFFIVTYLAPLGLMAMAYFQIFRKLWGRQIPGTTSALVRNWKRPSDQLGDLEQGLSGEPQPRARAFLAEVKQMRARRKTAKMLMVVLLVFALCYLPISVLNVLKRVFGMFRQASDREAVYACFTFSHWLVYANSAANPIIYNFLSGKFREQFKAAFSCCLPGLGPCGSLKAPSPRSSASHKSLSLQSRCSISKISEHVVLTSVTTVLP
Protocol: (§1) The orexin receptor antagonistic activity of the compounds of formula (I) is determined in accordance with one of the following experimental methods.
(§2) Chinese hamster ovary (CHO) cells expressing the human orexin-1 receptor and the human orexin-2 receptor, respectively, are grown in culture medium (Ham F-12 with L-Glutamine) containing 300 μg/ml G418, 100 U/ml penicillin, 100 μg/ml streptomycin and 10% heat inactivated fetal calf serum (FCS). The cells are seeded at 20,000 cells/well into 384-well black clear bottom sterile plates (Greiner). The seeded plates are incubated overnight at 37° C. in 5% CO2.
(§3) Human orexin-A as an agonist is prepared as 1 mM stock solution in MeOH:water (1:1), diluted in HBSS containing 0.1% bovine serum albumin (BSA), NaHCO3: 0.375 g/l and 20 mM HEPES for use in the assay at a final concentration of 3 nM. Antagonists are prepared as 10 mM stock solution in DMSO, then diluted in 384-well plates, first in DMSO, then in HBSS containing 0.1% bovine serum albumin (BSA), NaHCO3: 0.375 g/l and 20 mM HEPES.
(§4) On the day of the assay, 50 μl of staining buffer (HBSS containing 1% FCS, 20 mM HEPES, NaHCO3: 0.375 g/l, 5 mM probenecid (Sigma) and 3 μM of the fluorescent calcium indicator fluo-4 AM (1 mM stock solution in DMSO, containing 10% pluronic) is added to each well.
(§5) The 384-well cell-plates are incubated for 50 min at 37° C. in 5% CO2 followed by equilibration at RT for 30-120 min before measurement.
(§6) Within the Fluorescent Imaging Plate Reader (FLIPR Tetra, Molecular Devices), antagonists are added to the plate in a volume of 10 μl/well, incubated for 10 min and finally 10 μl/well of agonist is added. Fluorescence is measured for each well at 1 second intervals, and the height of each fluorescence peak is compared to the height of the fluorescence peak induced by 3 nM orexin-A with vehicle in place of antagonist. For each antagonist, the IC50 value (the concentration of compound needed to inhibit 50% of the agonistic response) is determined and may be normalized using the obtained IC50 value of a on-plate reference compound (normalized values in Table 1 are indicated by an asterisk *). With the FLIPR Tetra, two different conditions (conditions A and conditions B) were used, differing in adjustment of pipetting speed and cell splitting regime. The calculated IC50 values of the compounds may fluctuate depending on the daily cellular assay performance. Fluctuations of this kind are known to those skilled in the art.

[2] = target: T2, human orexin-2 receptor (Homo sapiens, UniProt O43614); assay: Intracellular calcium measurement (FLIPR Tetra), orexin receptor antagonistic activity, OX2; type: cell-based; conditions: CHO cells expressing human orexin-2 receptor, 3 nM orexin-A
T2 construct: expressed in transfected cells; host or cells: CHO (Chinese hamster ovary) cells, kept under G418 selection
T2 sequence (O43614 1-444): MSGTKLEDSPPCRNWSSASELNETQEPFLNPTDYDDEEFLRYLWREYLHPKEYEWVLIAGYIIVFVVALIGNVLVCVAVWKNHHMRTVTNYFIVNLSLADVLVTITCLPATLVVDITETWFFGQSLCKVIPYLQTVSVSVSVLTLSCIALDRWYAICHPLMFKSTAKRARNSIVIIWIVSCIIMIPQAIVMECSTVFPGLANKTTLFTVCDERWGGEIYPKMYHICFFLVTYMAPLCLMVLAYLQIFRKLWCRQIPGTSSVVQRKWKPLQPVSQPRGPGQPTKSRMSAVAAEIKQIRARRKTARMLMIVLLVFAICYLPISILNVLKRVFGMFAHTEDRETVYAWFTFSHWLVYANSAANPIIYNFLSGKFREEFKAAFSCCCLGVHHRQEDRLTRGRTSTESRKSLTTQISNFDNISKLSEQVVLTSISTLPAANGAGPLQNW
Protocol: as §1, §2, §3, §4, §5, §6

[3] = conditions B, normalized (*) using IC50 of on-plate reference compound

Molecule | IC50 ([1]; conditions A) | IC50 ([2]; conditions A) | further results
2-Methyl-5-m-tolyl-thiazole-4-carboxylic acid [2-cyclopropyl-amino-2-(3,4-dimethoxy-phenyl)-ethyl]-cyclopropylmethyl-amide [Example 432] | – | – | IC50 ([1]; conditions B): 234 nM; IC50 ([2]; conditions B): 75 nM
COc1ccc2[nH]cc(CC(C)N(CC3CC3)C(=O)c3nc(C)sc3-c3ccc(OC)nc3)c2c1 (racemic) [Example 385] | – | – | IC50 [1, 3]: 23 nM; IC50 [2, 3]: 25 nM
COc1ccc(CCN(CC2CC2)C(=O)c2nc(C)sc2-c2ccccc2)cc1OC [Example 18, 2-Methyl-5-phenyl-thiazole-4-carboxylic acid cyclopropylmethyl-[2-(3,4-dimethoxy-phenyl)-ethyl]-amide] | 925 nM | 4 nM | –
CCc1ccc(-c2sc(C)nc2C(=O)N(CCc2ccc(OC)c(OC)c2)CC2CC2)cc1 [Example 20, 5-(4-Ethyl-phenyl)-2-methyl-thiazole-4-carboxylic acid cyclopropylmethyl-[2-(3,4-dimethoxy-phenyl)-ethyl]-amide] | 2130 nM | 15 nM | –
COc1ccc(CCN(CC2CC2)C(=O)c2nc(C3CC3)sc2-c2ccccc2)cc1OC [Example 22, 2-Cyclopropyl-5-phenyl-thiazole-4-carboxylic acid cyclopropylmethyl-[2-(3,4-dimethoxy-phenyl)-ethyl]-amide] | 570 nM | 35 nM | –
COc1ccc(CCN(CC2CC2)C(=O)c2ncsc2-c2ccccc2F)cc1OC [Example 37, 5-(2-Fluoro-phenyl)-thiazole-4-carboxylic acid cyclopropylmethyl-[2-(3,4-dimethoxy-phenyl)-ethyl]-amide] | 2690 nM | 5 nM | –
COc1cccc(-c2oc(C)nc2C(=O)N(CCc2ccc(OC)c(OC)c2)CC2CC2)c1 [Example 42, 5-(3-Methoxy-phenyl)-2-methyl-oxazole-4-carboxylic acid cyclopropylmethyl-[2-(3,4-dimethoxy-phenyl)-ethyl]-amide] | 1010 nM | 20 nM | –
COc1ccc(CCN(CC2CC2)C(=O)c2sc(C)nc2-c2ccc(C)cc2)cc1OC [Example 49, 2-Methyl-4-p-tolyl-thiazole-5-carboxylic acid cyclopropylmethyl-[2-(3,4-dimethoxy-phenyl)-ethyl]-amide] | 4230 nM | 22 nM | –
COc1ccc(CCN(CC2CC2)C(=O)c2c(-c3ccccc3)nnc3ccccc23)cc1OC [Example 51, 3-Phenyl-cinnoline-4-carboxylic acid cyclopropylmethyl-[2-(3,4-dimethoxy-phenyl)-ethyl]-amide] | 1440 nM | 34 nM | –
COc1ccc(C(O)CN(CC2CC2)C(=O)c2nc(Br)sc2-c2cccc(C)c2)cc1OC (stereo not drawn) [Example 56, 2-Bromo-5-m-tolyl-thiazole-4-carboxylic acid cyclopropylmethyl-[2-(3,4-dimethoxy-phenyl)-2-hydroxy-ethyl]-amide] | 697 nM | 299 nM | –
COc1nc(C(=O)N(CC2CC2)CC(O)c2ccc(OC)c(OC)c2)c(-c2cccc(C)c2)s1 (stereo not drawn) [Example 78, 2-Methoxy-5-m-tolyl-thiazole-4-carboxylic acid cyclopropylmethyl-[2-(3,4-dimethoxy-phenyl)-2-hydroxy-ethyl]-amide] | 1120 nM | 141 nM | –
COc1ccc(C(O)CN(CC2CC2)C(=O)c2nc(N(C)C)sc2-c2cccc(C)c2)cc1OC (stereo not drawn) [Example 79, 2-Dimethylamino-5-m-tolyl-thiazole-4-carboxylic acid cyclopropylmethyl-[2-(3,4-dimethoxy-phenyl)-2-hydroxy-ethyl]-amide] | 276 nM | 158 nM | –
COc1ccc(C(O)CN(CC2CC2)C(=O)c2ncsc2-c2cccc(C(F)(F)F)c2)cc1OC (stereo not drawn) [Example 85, 5-(3-Trifluoromethyl-phenyl)-thiazole-4-carboxylic acid cyclopropylmethyl-[2-(3,4-dimethoxy-phenyl)-2-hydroxy-ethyl]-amide] | > 10000 nM | 551 nM | –
COc1ccc(C(O)CN(CC2CC2)C(=O)c2c(-c3ccccc3)nc3ccc(Cl)cn23)cc1OC (stereo not drawn) [Example 97, 6-Chloro-2-phenyl-imidazo[1,2-a]pyridine-3-carboxylic acid cyclopropylmethyl-[2-(3,4-dimethoxy-phenyl)-2-hydroxy-ethyl]-amide] | 4920 nM | 263 nM | –
COc1ccc(C(O)CN(CC2CC2)C(=O)c2nccnc2-c2ccccc2)cc1OC (stereo not drawn) [Example 99, 3-Phenyl-pyrazine-2-carboxylic acid cyclopropylmethyl-[2-(3,4-dimethoxy-phenyl)-2-hydroxy-ethyl]-amide] | > 10000 nM | 41 nM | –

Continued, in another order:

IC50 ([1]; conditions A) | IC50 ([2]; conditions A) | Molecule | further results
2200 nM | 40 nM | COc1ccc(CCN(CC2CC2)C(=O)c2nc(C)sc2-c2cccc(C#N)c2)cc1OC [Example 19, 5-(3-Cyano-phenyl)-2-methyl-thiazole-4-carboxylic acid cyclopropylmethyl-[2-(3,4-dimethoxy-phenyl)-ethyl]-amide] | –
206 nM | 30 nM | COc1ccc(CCN(CC2CC2)C(=O)c2nc(N(C)C)sc2-c2cccc(C)c2)cc1OC [Example 30, 2-Dimethylamino-5-m-tolyl-thiazole-4-carboxylic acid cyclopropylmethyl-[2-(3,4-dimethoxy-phenyl)-ethyl]-amide] | –
3120 nM | 18 nM | COc1ccc(CCN(CC2CC2)C(=O)c2nc(C)oc2-c2cccc(C(F)(F)F)c2)cc1OC [Example 43, 2-Methyl-5-(3-trifluoromethyl-phenyl)-oxazole-4-carboxylic acid cyclopropylmethyl-[2-(3,4-dimethoxy-phenyl)-ethyl]-amide] | –
4920 nM | 17 nM | COc1ccc(CCN(CC2CC2)C(=O)c2sc(C)nc2-c2ccc(Cl)cc2)cc1OC [Example 48, 4-(4-Chloro-phenyl)-2-methyl-thiazole-5-carboxylic acid cyclopropylmethyl-[2-(3,4-dimethoxy-phenyl)-ethyl]-amide] | –
> 10000 nM | 10 nM | COc1ccc(CCN(CC2CC2)C(=O)c2sc(C)nc2-c2ccc(F)cc2)cc1OC [Example 50, 4-(4-Fluoro-phenyl)-2-methyl-thiazole-5-carboxylic acid cyclopropylmethyl-[2-(3,4-dimethoxy-phenyl)-ethyl]-amide] | –
8670 nM | 81 nM | COc1ccc(CCN(CC2CC2)C(=O)c2snnc2-c2ccccc2)cc1OC [Example 53, 4-Phenyl-[1,2,3]thiadiazole-5-carboxylic acid cyclopropylmethyl-[2-(3,4-dimethoxy-phenyl)-ethyl]-amide] | –
